{"source": "patent US5736529A", "about": "“Use of NAD-related compounds in the treatment of neural trauma to inhibit neurodegeneration” (priority 1996, dated 1998)", "key": {"[1]": {"system": "DNA in brain sections of C57BL/6 mice", "experiment": "DNA fragmentation in brain regions upon treatment with tBuOOH (Tables 1 and 2)", "assay_type": "in vivo, mouse (C57BL/6)", "details": "for Fraction of damaged DNA, Cortex / Fraction of damaged DNA, Hippo / Fraction of damaged DNA, Midbrain / Fraction of damaged DNA, Striatum / Fraction of damaged DNA, Thalamus / Fraction of damaged DNA, Cerebellum: mean ± SD", "method": "In general male C57BL/6 mice (2, 8 or 24 months old) were anesthetized with ketamine and xylazine (200 and 2 mg/kg, ip). They were injected ICV with tBuOOH in doses of approximately 22 or 110 mg/kg. This amounts to 1 or 5 μl of a 70% solution of tBuOOH injected slowly into a lateral cerebral ventricle. A mouse brain weighs about 400 mg. […] Animals recovered from anesthesia about 30 minutes or so after tBuOOH administration. […] Low dose mice survived for 48 hours or more.\nYoung adult (2 month old) and mature (8 month old) C57BL/6 mice were divided into 7 groups with 8 animals in the control group and 4 animals in each of the other groups for both the age groups. A dose of 109.7 mg/kg of tBuOOH was administered ICV, to three groups of mice of both age groups. See Tables 1 and 2. tBuOOH was injected ICV following the technique described in Popick^2. The experiments ended 2 minutes, 5 minutes and 20 minutes after injection of tBuOOH. In the second set of experiments, 21.9 mg/kg of the toxin was administered ICV in the other three groups of mice with experimental durations of 12 hours, 24 hours and 48 hours respectively. The controls were treated with saline rather than tBuOOH.\nThe brains were removed after the allotted time period and sectioned immediately into the following sections: cortex, striatum, hippocampus, thalamus, midbrain and cerebellum."}, "[2]": {"system": "DNA in brain regions of C57BL/6 mice", "details": "for DNA fragmentation, low dose: 21.9 mg/kg", "method": "24 month old C57BL/6 mice were divided into 3 groups of 3 mice each. One group was the control. A second group of mice was treated ICV with 109.7 mg/kg t-BuOOH and then sacrificed 20 minutes later. A third group of mice were treated ICV with 21.9 mg/kg t-BuOOH and then sacrificed 48 hours later. […] The brains were removed from the treated mice and were sectioned into the following six regions: cortex, striatum, hippocampus, thalamus, midbrain and cerebellum. DNA damage has been expressed as a ratio of the damaged DNA to the total DNA per gram of tissue.\nDNA fragmentation was assessed in […] samples of tissue from a brain region. A volume of 0.2 ml of ice cold lysing buffer (10 mM Tris-HCl, pH 7.5, 1 mM EDTA, and 0.2% Triton X-100) was added to each section, which was then centrifuged at 12,000 g for 25 minutes to separate the intact from the fragmented DNA. The supernatant (containing the fragmented DNA) was transferred to a separate tube. 0.2 ml of the lysing buffer was added to the pellet with sonication for 10 seconds. The amount of DNA in the supernatant and pellet fractions was determined by a fluorimetric method, using the dye Hoechst 33258. DNA damage is presented as the ratio of DNA in the supernatant to the total DNA in the pellet and supernatant per gram of tissue^17.\n8 month old mice were divided into 4 groups (n=5 each). Group 1 was the control. Mice in group 2 were treated with 109.7 mg/kg t-BuOOH and then sacrificed 20 minutes later. […] The same procedures were performed as with the 24 month old mice."}, "catalase": {"system": "catalase", "details": "cited from earlier work"}, "[3]": {"details": "8 month old mice, 21.9 mg/kg ICV, 48 hours"}, "[4]": {"details": "8 month old mice, 109.7 mg/kg ICV, 2 min"}, "[5]": {"details": "8 month old mice, 109.7 mg/kg ICV, 5 min"}, "[6]": {"details": "8 month old mice, 109.7 mg/kg ICV, 20 min"}, "[7]": {"details": "8 month old mice, 109.7 mg/kg ICV, 20 min, * p<0.05 vs control"}, "[8]": {"details": "8 month old mice, 109.7 mg/kg t-BuOOH, 20 min"}, "[9]": {"details": "8 month old mice, 109.7 mg/kg t-BuOOH, 20 min, * p<0.05 vs control"}, "[10]": {"details": "24 month old mice, 21.9 mg/kg t-BuOOH ICV, 48 hours, * p<0.05 vs control"}, "[11]": {"details": "24 month old mice, 109.7 mg/kg t-BuOOH ICV, 20 min, * p<0.05 vs control"}}, "note": "Read-outs that look alike come from different tables or passages of the source.", "data": [{"smiles": "CC(C)(C)OO", "note": "[tBuOOH, t-butylhydroperoxide]", "values": [{"measurement": "Fraction of damaged DNA, Cortex", "setting": "[1]; [3]", "result": "0.69 ± 0.10 per gram of tissue"}, {"measurement": "Fraction of damaged DNA, Hippo", "setting": "[1]; [3]", "result": "0.55 ± 0.06 per gram of tissue"}, {"measurement": "Fraction of damaged DNA, Midbrain", "setting": "[1]; [3]", "result": "1.05 ± 0.13 per gram of tissue"}, {"measurement": "Fraction of damaged DNA, Striatum", "setting": "[1]; [3]", "result": "1.15 ± 0.12 per gram of tissue"}, {"measurement": "Fraction of damaged DNA, Thalamus", "setting": "[1]; [3]", "result": "1.65 ± 0.13 per gram of tissue"}, {"measurement": "Fraction of damaged DNA, Cerebellum", "setting": "[1]; 8 month old mice, 21.9 mg/kg ICV, 48 hours, * p<0.05 vs control", "result": "1.01 ± 0.11 per gram of tissue"}, {"measurement": "significant damage in the hippocampus", "setting": "[1]; 8 month old mice, 109.7 mg/kg", "result": "significant damage was seen within 5 minutes"}, {"measurement": "Fraction of damaged DNA, Cerebellum", "setting": "[1]; [4]", "result": "0.80 ± 0.09 per gram of tissue"}, {"measurement": "Fraction of damaged DNA, Cortex", "setting": "[1]; [4]", "result": "0.87 ± 0.17 per gram of tissue"}, {"measurement": "Fraction of damaged DNA, Hippo", "setting": "[1]; [4]", "result": "0.69 ± 0.14 per gram of tissue"}, {"measurement": "Fraction of damaged DNA, Midbrain", "setting": "[1]; [4]", "result": "2.24 ± 0.66 per gram of tissue"}, {"measurement": "Fraction of damaged DNA, Striatum", "setting": "[1]; [4]", "result": "1.56 ± 0.27 per gram of tissue"}, {"measurement": "Fraction of damaged DNA, Thalamus", "setting": "[1]; 8 month old mice, 109.7 mg/kg ICV, 2 min, * p<0.05 vs control", "result": "2.29 ± 0.78 per gram of tissue"}, {"measurement": "Fraction of damaged DNA, Cortex", "setting": "[1]; [5]", "result": "0.67 ± 0.16 per gram of tissue"}, {"measurement": "Fraction of damaged DNA, Midbrain", "setting": "[1]; [5]", "result": "1.93 ± 0.26 per gram of tissue"}, {"measurement": "Fraction of damaged DNA, Striatum", "setting": "[1]; [5]", "result": "1.63 ± 0.47 per gram of tissue"}, {"measurement": "Fraction of damaged DNA, Thalamus", "setting": "[1]; [5]", "result": "1.86 ± 0.58 per gram of tissue"}, {"measurement": "Fraction of damaged DNA, Cerebellum", "setting": "[1]; 8 month old mice, 109.7 mg/kg ICV, 5 min, * p<0.05 vs control", "result": "1.15 ± 0.12 per gram of tissue"}, {"measurement": "Fraction of damaged DNA, Hippo", "setting": "[1]; 8 month old mice, 109.7 mg/kg ICV, 5 min, * p<0.05 vs control, 1 p<0.05 vs other age group", "result": "0.81 ± 0.20 per gram of tissue"}, {"measurement": "Fraction of damaged DNA, Cortex", "setting": "[1]; [6]", "result": "0.70 ± 0.19 per gram of tissue"}, {"measurement": "Fraction of damaged DNA, Hippo", "setting": "[1]; [6]", "result": "0.67 ± 0.15 per gram of tissue"}, {"measurement": "Fraction of damaged DNA, Cerebellum", "setting": "[1]; [7]", "result": "1.46 ± 0.36 per gram of tissue"}, {"measurement": "Fraction of damaged DNA, Midbrain", "setting": "[1]; [7]", "result": "2.98 ± 0.85 per gram of tissue"}, {"measurement": "Fraction of damaged DNA, Striatum", "setting": "[1]; [7]", "result": "2.38 ± 0.41 per gram of tissue"}, {"measurement": "Fraction of damaged DNA, Thalamus", "setting": "[1]; [7]", "result": "2.77 ± 0.30 per gram of tissue"}, {"measurement": "significant DNA damage in the thalamus", "setting": "[1]; both age groups", "result": "significant DNA damage was found after 2 minutes"}, {"measurement": "significant damage in the midbrain", "setting": "[1]; both age groups", "result": "significant damage was found after 20 minutes"}, {"measurement": "significant damage in the cerebellum at 48 hours", "setting": "[1]; both age groups, 2 month old significantly greater than 8 month old", "result": "significant damage was observed in the cerebellum at the end of 48 hours"}, {"measurement": "significant DNA damage in the striatum", "setting": "[1]; both age groups, high dose", "result": "significant DNA damage was found only after 20 minutes"}, {"measurement": "DNA fragmentation, low dose", "setting": "[2]; 8 month old mice", "result": "significantly higher DNA fragmentation values were seen only in the cerebellum"}, {"measurement": "DNA fragmentation, low dose", "setting": "[2]; 24 month old mice", "result": "significant increases in DNA fragmentation were observed in almost all brain regions (except the striatum)"}, {"measurement": "DNA fragmentation in the cortex or hippocampus", "setting": "[2]; 109.7 mg/kg, 8 month old mice", "result": "no significant increase in DNA fragmentation"}, {"measurement": "DNA fragmentation in many brain regions", "setting": "[2]; 109.7 mg/kg, 24 and 8 month old mice", "result": "Significant DNA fragmentation"}, {"measurement": "DNA fragmentation, cortex", "setting": "[2]; [8]", "result": "0.83 ± 0.14 per gram of tissue"}, {"measurement": "DNA fragmentation, hippo", "setting": "[2]; [8]", "result": "0.768 ± 0.16 per gram of tissue"}, {"measurement": "DNA fragmentation, cerebellum", "setting": "[2]; [9]", "result": "1.16 ± 0.15 per gram of tissue"}, {"measurement": "DNA fragmentation, midbrain", "setting": "[2]; [9]", "result": "2.37 ± 0.43 per gram of tissue"}, {"measurement": "DNA fragmentation, striatum", "setting": "[2]; [9]", "result": "2.33 ± 0.46 per gram of tissue"}, {"measurement": "DNA fragmentation, thala", "setting": "[2]; [9]", "result": "2.65 ± 0.88 per gram of tissue"}, {"measurement": "DNA fragmentation in the cerebellums (FIG. 5)", "setting": "[2]; 8 month old mice, p<0.05", "result": "Statistically significantly different from control values and tBuOOH with nicotinamide"}, {"measurement": "DNA fragmentation, striatum", "setting": "[2]; 24 month old mice, 21.9 mg/kg t-BuOOH ICV, 48 hours", "result": "1.94 ± 0.31 per gram of tissue"}, {"measurement": "DNA fragmentation, cerebellum", "setting": "[2]; [10]", "result": "1.71 ± 0.45 per gram of tissue"}, {"measurement": "DNA fragmentation, cortex", "setting": "[2]; [10]", "result": "1.55 ± 0.19 per gram of tissue"}, {"measurement": "DNA fragmentation, hippo", "setting": "[2]; [10]", "result": "1.43 ± 0.23 per gram of tissue"}, {"measurement": "DNA fragmentation, midbrain", "setting": "[2]; [10]", "result": "2.04 ± 0.53 per gram of tissue"}, {"measurement": "DNA fragmentation, thala", "setting": "[2]; [10]", "result": "2.13 ± 0.31 per gram of tissue"}, {"measurement": "DNA fragmentation, cerebellum", "setting": "[2]; [11]", "result": "1.84 ± 0.45 per gram of tissue"}, {"measurement": "DNA fragmentation, cortex", "setting": "[2]; [11]", "result": "1.73 ± 0.23 per gram of tissue"}, {"measurement": "DNA fragmentation, hippo", "setting": "[2]; [11]", "result": "1.44 ± 0.20 per gram of tissue"}, {"measurement": "DNA fragmentation, midbrain", "setting": "[2]; [11]", "result": "2.77 ± 0.65 per gram of tissue"}, {"measurement": "DNA fragmentation, striatum", "setting": "[2]; [11]", "result": "2.46 ± 0.33 per gram of tissue"}, {"measurement": "DNA fragmentation, thala", "setting": "[2]; [11]", "result": "2.52 ± 0.43 per gram of tissue"}, {"measurement": "substrate for catalase", "setting": "catalase", "result": "not a substrate for catalase"}]}]}
